# Reference: US4436742A, “4-Hydroxy-2,1,3-benzthiadiazole compounds and β-adrenergic method of use therefor” (Boehringer Mannheim GmbH, priority 1974, dated 1984)
# Key:
# cardiac β-receptor = assay: inhibition of isoprenalin tachycardia in wake rabbits (cardiac β-receptor blocking activity); assay type: in vivo, rabbit; settings: for Heartbeat Frequency: isoprenalin 1 μg/kg i.v. 30 minutes after infusion, x ± sx; for DE250: i.v., interpolated dosage which limits the frequence increase to 250 beats/min
# Method: The following tests were carried out to determine the cardiac β-receptor blocking activity of certain test compounds by determining the inhibition of the heart beat frequency increase induced by intravenous administration of isoprenalin.
# The β-receptor blocking activity of the test compounds was tested on wake rabbits weighing between 2 to 3.5 kg. and kept in wooden cages. EKG-electrodes were inserted into the hind quarters of the rabbits s.c. (II. lead) and the heart frequency was measured based on 20 heart beats. The test compounds were then infused through a small tube to the ear vein of the rabbits over a period of 15 minutes. 30 minutes after the infusion isoprenalin (3,4-dihydro-α-[(isopropylamino)-methyl]-benzylalcohol) was injected intravenously at 1 μg/kg.
# [1] = acute toxicity in mice, intravenous; settings: in vivo, mouse, i.v., dosage at which 50% of the mice die
# Method: 1. The acute toxicity in mice when administered intravenouly was measured and the LD50 (=dosage at which 50% of the mice die) determined.
SMILES,Heartbeat Frequency (cardiac β-receptor; 0.01 mg/kg i.v.) [beats/min],Heartbeat Frequency (cardiac β-receptor; 0.1 mg/kg i.v.) [beats/min],Heartbeat Frequency (cardiac β-receptor; 0.3 mg/kg i.v.) [beats/min],Heartbeat Frequency (cardiac β-receptor; 1.0 mg/kg i.v.) [beats/min],Heartbeat Frequency (cardiac β-receptor; 5.0 mg/kg i.v.) [beats/min],DE250 (cardiac β-receptor) [mg/kg],LD50 [1] [mg/kg],Heartbeat Frequency (cardiac β-receptor; 0.5 mg/kg i.v.) [beats/min]
"CC(C)NCC(O)COc1cccc2nsnc12 (centres unmarked) [Compound I, 4-(3-Isopropylamino-2-hydroxy-propyloxy)-2,1,3-benzthiadiazole]",324 ± 9,297 ± 10,266 ± 14,220 ± 14,210 ± 5,0.7,50,–
"CC(C)NCC(O)COc1ccc2nsnc2c1 (centres unmarked) [Compound A, 5-(3-Isopropylamino-2-hydroxypropoxy)-2,1,3-benzo-thiadiazole, reference compound]",–,–,–,290 ± 8,246 ± 7,5,100,–
CC(C)(C)NCC(O)COc1cccc2nsnc12 (centres unmarked) [Compound II],–,308 ± 10,–,215 ± 10,220 ± 7,0.5,45,245 ± 6
